Reference: patent US10953209B2, “Treating tumors using TTFields combined with a PARP inhibitor” (Board of Regents of the University of Texas System, priority 2018, dated 2021)

Key:
Format in all cases: cell-based, Human
H1299 NSCLC cell line = assay: Clonogenic survival, TTFields + Olaparib combination (Highest Single Agent CI); conditions: for CI TTFields + Olap 10 μM: Olaparib 10 μM; for CI TTFields + Olap 10 μM / CI TTFields + Olap 20 μM / CI TTFields + Olap 40 μM: CI>1 = synergistic; for CI TTFields + Olap 20 μM: Olaparib 20 μM; for CI TTFields + Olap 40 μM: Olaparib 40 μM
Experimental: (§1) Experiments similar to those discussed above in connection with Table 2 and FIG. 6 were also conducted, but with exposure to IR replaced with exposure to three different concentrations (either 10, 20, and 40 μM; or 12.5, 25, and 50 μM, depending on the cell line) of the PARP inhibitor Olaparib. More specifically, Olaparib at each of the different concentrations was added to cells and the cells were then exposed to TTFields for 30 or 60 h (or not exposed to TTFields for the control) and immediately plated for survival. Baseline growth curves for exposing the various NSCLC cell lines to different concentrations of Olaparib without TTFields are depicted in FIG. 7. Clonogenic assays are depicted in FIG. 8 for the different combinations of drug concentration and TTFields exposure time in Table 3.
(§2) The inventors considered the combined effect of TTFields and Olaparib to be synergistic if the combination index (CI) was >1 and the P-value was <0.05 for a given time point and a given cell line.
(§3) Human NSCLC cell lines (H157, H4006, A549, H1299 and H1650) were purchased from American Tissue Culture Collection. All these cell lines were grown in RPMI medium supplemented with 10% (v/v) fetal bovine serum (Atlanta Biologicals, Flowery Branch, Ga., USA) and penicillin/[…] (final concentration 50 μg/ml; Sigma-Aldrich, St. Louis, Mo., U29SA). All cells were grown at 37° C. in a humidified incubator constantly supplied with 5% CO2.
(§4) The inventors used the inovitro system (NovoCure Ltd, Haifa, Israel) to generate TTFields that use two pairs of electrodes printed perpendicularly on the outer walls of a Petri dish composed of high dielectric constant ceramic (lead magnesium niobate-lead titanite (PMN-PT)). The transducer arrays were connected to a sinusoidal waveform generator that generate low-intensity electric fields at the desired frequencies in the medium as summarized in Table 1 above. The orientation of the TTFields was switched 90° every 1 s, thus covering the majority of the orientation axis of cell divisions, as previously described by Kirson et al. Plate temperature was maintained at 37° C. by placing the plates in a refrigerated incubator where the temperature was maintained at 19° C. to dissipate the heat generated by the inovitro system. The temperature was measured by 2 thermistors (Omega Engineering, Stamford, Conn., USA) attached to the ceramic walls. All cell suspensions were grown on a cover slip inside the inovitro dish (NovoCure Ltd) and treated with TTFields for the times indicated in the figure legends.
(§5) To study the effect of radiation sensitivity on NSCLC cells, exponentially growing cells were treated with IR using a Mark II Cs irradiator (J L Shepherd and Associates) at a dose rate of 3.47 Gy/min, followed by immediate application of TTFields for 24, 48 and 72 h. Cells were then re-seeded into 60 mm dishes and incubated for up to 2 weeks. Colonies containing 50 or more cells were considered viable. The data are presented as the mean±S.E.M. of three independent experiments. The radiosensitization effect of TTFields was evaluated according to The Highest Single Agent approach by calculating the CI as given below. CI=SFIR×SFTTFields)/SFIR+TTFields Where SF=Survivalfraction
(§6) The combination effect was considered enhanced/synergistic when CI>1, additive when CI=1. Statistical significance for a positive effect was determined by the P-value of a two-way ANOVA multiple comparison statistical test comparing the combination (TTFields plus IR) to the single agent showing the greatest cell killing for a given dose and time after IR.

H157 NSCLC cell line = assay: as above; conditions: for CI TTFields + Olap 10 μM: Olaparib 10 μM; for CI TTFields + Olap 10 μM / CI TTFields + Olap 20 μM / CI TTFields + Olap 40 μM: CI>1 = synergistic; for CI TTFields + Olap 20 μM: Olaparib 20 μM; for CI TTFields + Olap 40 μM: Olaparib 40 μM
Experimental: as §1, §2, §3, §4, §5, §6

H4006 NSCLC cell line = assay: as above; conditions: for CI TTFields + Olap 12.5 μM: Olaparib 12.5 μM; for CI TTFields + Olap 12.5 μM / CI TTFields + Olap 25 μM / CI TTFields + Olap 50 μM: CI>1 = synergistic; for CI TTFields + Olap 25 μM: Olaparib 25 μM; for CI TTFields + Olap 50 μM: Olaparib 50 μM
Experimental: as §1, §2, §3, §4, §5, §6

A549 NSCLC cell line = assay: as above; conditions: for CI TTFields + Olap 12.5 μM: Olaparib 12.5 μM; for CI TTFields + Olap 12.5 μM / CI TTFields + Olap 25 μM / CI TTFields + Olap 50 μM: CI>1 = synergistic; for CI TTFields + Olap 25 μM: Olaparib 25 μM; for CI TTFields + Olap 50 μM: Olaparib 50 μM
Experimental: as §1, §2, §3, §4, §5, §6

H1299 cell line [1] = assay: Clonogenic survival, triple combination of TTFields, IR and Olaparib (CI); conditions: TTFields 48 h, Olaparib 20 μM
H1299 cell line [2] = assay: as above; conditions: Olaparib 20 μM; for CI TTFields + Olap + 1 Gy: 1 Gy IR; for CI TTFields + Olap + 2 Gy: 2 Gy IR; for CI TTFields + Olap: no IR
Experimental: (§7) Experiments similar to those discussed above in connection with Table 2 and FIG. 6 were also conducted for H1299 and H157 cell lines, both with and without the PARP inhibitor Olaparib. More specifically, Olaparib (at a concentration of 20 μM) was added to cells, the cells were immediately exposed to TTFields for 24, […], or 72 h, removed, irradiated (at different doses of radiation), and immediately plated for survival.
(§8) The combination effect was evaluated using the Highest Single Agent approach and are listed in Table 4 and depicted in FIGS. 9A and 9B, which summarize the clonogenic assays for the different combinations of RT dosage and TTFields exposure time in the table, both with and without the Olaparib.
as §2, §3, §4, §5
(§9) For the Triple Combination of TTFields, IR, and Olaparib, CI was calculated using the following equations: CI(TTFields+olap)=(SFOlap×SFTTFields)/SFOlap+TTFields CI(TTFields+1Gy)=(SF1Gy×SFTTFields)/SF1Gy+TTFields CI(TTFields+2Gy)=(SF2Gy×SFTTFields)/SF2Gy+TTFields CI(TTFields+olap+1Gy)=(SF1Gy+Olap×SFTTFields)/SFOlap+TTFields+1Gy CI(TTFields+olap+2Gy)=(SF2Gy+Olap×SFTTFields)/SFOlap+TTFields+2Gy Where SF=Survival fraction

H157 cell line = assay: as above; conditions: Olaparib 20 μM; for CI TTFields + Olap + 1 Gy: 1 Gy IR; for CI TTFields + Olap + 2 Gy: 2 Gy IR; for CI TTFields + Olap: no IR
Experimental: as §7, §8, §2, §3, §4, §5, §9

[3] = all tested concentrations, synergistic if CI >1 and P <0.05
[4] = synergistic if CI >1 and P <0.05

O=C(c1cc(Cc2n[nH]c(=O)c3ccccc23)ccc1F)N1CCN(C(=O)C2CC2)CC1 [Olaparib]
CI TTFields + Olap 10 μM (H1299 NSCLC cell line; TTFields 30 h): 1.12
CI TTFields + Olap 20 μM (H1299 NSCLC cell line; TTFields 30 h): 1.42
CI TTFields + Olap 40 μM (H1299 NSCLC cell line; TTFields 30 h): 1.9
CI TTFields + Olap 10 μM (H1299 NSCLC cell line; TTFields 60 h): 1.4
CI TTFields + Olap 20 μM (H1299 NSCLC cell line; TTFields 60 h): 1.5
CI TTFields + Olap 40 μM (H1299 NSCLC cell line; TTFields 60 h): 3.7
combined effect of TTFields and Olaparib on cell death (H1299 NSCLC cell line; [3]): synergistic
CI TTFields + Olap 10 μM (H157 NSCLC cell line; TTFields 30 h): 1.3
CI TTFields + Olap 20 μM (H157 NSCLC cell line; TTFields 30 h): 1.44
CI TTFields + Olap 40 μM (H157 NSCLC cell line; TTFields 30 h): 1.78
CI TTFields + Olap 10 μM (H157 NSCLC cell line; TTFields 60 h): 1.63
CI TTFields + Olap 20 μM (H157 NSCLC cell line; TTFields 60 h): 1.43
CI TTFields + Olap 40 μM (H157 NSCLC cell line; TTFields 60 h): 1.68
combined effect of TTFields and Olaparib on cell death (H157 NSCLC cell line; [3]): synergistic
CI TTFields + Olap 12.5 μM (H4006 NSCLC cell line; TTFields 30 h): 1.17
CI TTFields + Olap 25 μM (H4006 NSCLC cell line; TTFields 30 h): 1.17
CI TTFields + Olap 50 μM (H4006 NSCLC cell line; TTFields 30 h): 1.32
CI TTFields + Olap 12.5 μM (H4006 NSCLC cell line; TTFields 60 h): 1.13
CI TTFields + Olap 25 μM (H4006 NSCLC cell line; TTFields 60 h): 1.34
CI TTFields + Olap 50 μM (H4006 NSCLC cell line; TTFields 60 h): 1.96
combined effect of TTFields and Olaparib on cell death (H4006 NSCLC cell line; [3]): synergistic
CI TTFields + Olap 12.5 μM (A549 NSCLC cell line; TTFields 30 h): 1.12
CI TTFields + Olap 25 μM (A549 NSCLC cell line; TTFields 30 h): 1.46
CI TTFields + Olap 50 μM (A549 NSCLC cell line; TTFields 30 h): 1.32
CI TTFields + Olap 12.5 μM (A549 NSCLC cell line; TTFields 60 h): 1.39
CI TTFields + Olap 25 μM (A549 NSCLC cell line; TTFields 60 h): 1.716
CI TTFields + Olap 50 μM (A549 NSCLC cell line; TTFields 60 h): 1.53
combined effect of TTFields and Olaparib on cell death (A549 NSCLC cell line; [3]): synergistic
CI TTFields + Olap + 1 Gy (H1299 cell line [1]; 1 Gy IR): 1.70
CI TTFields + Olap + 2 Gy (H1299 cell line [1]; 2 Gy IR): 2.20
CI TTFields + Olap (H1299 cell line [1]; no IR): 1.02
combined effect of TTFields, IR, and Olaparib on cell death (H1299 cell line [2]; [4]): synergistic
CI TTFields + Olap + 1 Gy (H1299 cell line [2]; TTFields 24 h): 1.64
CI TTFields + Olap + 2 Gy (H1299 cell line [2]; TTFields 24 h): 1.96
CI TTFields + Olap (H1299 cell line [2]; TTFields 24 h): 1.03
CI TTFields + Olap + 1 Gy (H1299 cell line [2]; TTFields 72 h): 1.89
CI TTFields + Olap + 2 Gy (H1299 cell line [2]; TTFields 72 h): 3.08
CI TTFields + Olap (H1299 cell line [2]; TTFields 72 h): 1.06
combined effect of TTFields, IR, and Olaparib on cell death (H157 cell line; [4]): synergistic
CI TTFields + Olap + 1 Gy (H157 cell line; TTFields 24 h): 2.25
CI TTFields + Olap + 2 Gy (H157 cell line; TTFields 24 h): 2.36
CI TTFields + Olap (H157 cell line; TTFields 24 h): 0.97
CI TTFields + Olap + 1 Gy (H157 cell line; TTFields 48 h): 2.12
CI TTFields + Olap + 2 Gy (H157 cell line; TTFields 48 h): 2.07
CI TTFields + Olap (H157 cell line; TTFields 48 h): 1.02
CI TTFields + Olap + 1 Gy (H157 cell line; TTFields 72 h): 1.66
CI TTFields + Olap + 2 Gy (H157 cell line; TTFields 72 h): 2.57
CI TTFields + Olap (H157 cell line; TTFields 72 h): 1.49
